Measurements from US12552768B2, “Pyridinylpyrazole derivative or pharmaceutically acceptable salt thereof and use thereof” (INDUSTRY-UNIVERSITY COOPERATION FOUNDATION HANYANG …, priority 2021, dated 2026).

Assays:
[1] = target: PLK1(h) (Homo sapiens, UniProt P53350); experiment: PLK1 kinase inhibition, radiometric [33P-ATP] assay (IC50 Profiler Express); format: biochemical; details: for IC50: 10 μM ATP, 1 μM substrate (casein), 40 minutes at room temperature
Experimental: (§1) The analysis protocol was as follows. 1 μM substrate (casein), 10 μM ATP and PLK1(h) (5-10 mU) were incubated with 25 mM Tris pH 7.5, 0.02 mM EGTA, 0.66 mg/mL myelin basic protein, 10 mM Mg acetate and [33P-ATP] (specific activity of about 500 cpm/pmol, concentration as required) in a reaction solution with a final volume of 25 μL. The reaction was initiated by adding Mg-ATP mixture. After incubation at room temperature for 40 minutes, the reaction was stopped by adding 5 μL of a 3% phosphoric acid solution. 10 μL of the reaction solution was spotted on a P30 filter mat and washed 3 times for 5 minutes in 75 mM phosphoric acid and once in methanol prior to drying and scintillation counting. The 30 selected protein kinases were ABL1, AKT1, ALK, Aurora A, AXL, AXL (R499C), BRAF (V599E), BTK, c-MER, c-MET, c-Src, CAMKK1, CDK1/cyclin A, EGFR, ERK1, FGFR3, FYN, IGF1R, JAK3, KDR/VEGFR2, LCK, LYN, MEK1, PKA, PLK1, PLK2, PLK3, PLK4/SAK, SYK and TYRO3/SKY4.

[2] = system: 30 selected protein kinases; experiment: Selected kinase profiling of 30 protein kinases (Reaction Biology Kinase Hot Spot service); format: biochemical; details: screening at 10 μM or 30 μM (FIG. 2)
Experimental: as §1

PLK1(h), sequence (P53350 whole entry): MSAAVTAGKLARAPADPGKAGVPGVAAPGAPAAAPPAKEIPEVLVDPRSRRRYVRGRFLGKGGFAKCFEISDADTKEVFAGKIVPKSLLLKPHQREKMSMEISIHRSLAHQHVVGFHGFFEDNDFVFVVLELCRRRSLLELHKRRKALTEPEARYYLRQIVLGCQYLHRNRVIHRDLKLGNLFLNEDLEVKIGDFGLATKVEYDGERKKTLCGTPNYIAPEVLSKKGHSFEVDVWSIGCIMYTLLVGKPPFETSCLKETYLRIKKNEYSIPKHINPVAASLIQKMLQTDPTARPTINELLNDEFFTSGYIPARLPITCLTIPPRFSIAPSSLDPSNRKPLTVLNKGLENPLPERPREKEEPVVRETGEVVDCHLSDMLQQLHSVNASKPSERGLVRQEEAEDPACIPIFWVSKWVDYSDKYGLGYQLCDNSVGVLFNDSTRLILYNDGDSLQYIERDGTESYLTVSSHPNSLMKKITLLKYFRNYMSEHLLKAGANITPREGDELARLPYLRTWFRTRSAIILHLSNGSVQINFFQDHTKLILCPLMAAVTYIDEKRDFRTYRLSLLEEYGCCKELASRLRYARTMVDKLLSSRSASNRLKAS

Structure (SMILES)	IC50 [1] [nM]	inhibitory activity against PLK1 (in words) [1]	selectivity for PLK1 over other protein kinases (in words) [2]
NC(=O)c1nn(-c2ccnc(Nc3ccccc3)c2)cc1OCc1ccccc1 [Compound 13a, 4-(benzyloxy)-1-(2-(phenylamino)pyridin-4-yl)-1H-pyrazole-3-carboxamide]	9890	–	–
COc1ccccc1Nc1cc(-n2cc(OCc3ccccc3)c(C(N)=O)n2)ccn1 [Compound 14a]	1020	–	–
CN(C)Cc1ccc(COc2cn(-c3ccnc(Nc4ccccc4)c3)nc2C(N)=O)c(Cl)c1 [Compound 16, 4-((2-chloro-4-((dimethylamino)methyl)benzyl)oxy)-1-(2-(phenylamino)pyridin-4-yl)-1H-pyrazole-3-carboxamide]	1010	–	–
COc1ccccc1Nc1cc(-n2cc(OCc3ccccc3C(F)(F)F)c(C(N)=O)n2)ccn1 [Compound 14b]	1310	–	–

The next lines start with results.

IC50 [1] [nM]	inhibitory activity against PLK1 (in words) [1]	Structure (SMILES)	selectivity for PLK1 over other protein kinases (in words) [2]
847	–	NC(=O)c1nn(-c2ccnc(Nc3ccccc3)c2)cc1OCc1ccccc1C(F)(F)F [Compound 13b]	–
312	–	COc1ccccc1Nc1cc(-n2cc(OCc3ccc(CO)cc3Cl)c(C(N)=O)n2)ccn1 [Compound 17]	–
998	–	COc1ccccc1Nc1cc(-n2cc(OCc3ccc(CN(C)C)cc3Cl)c(C(N)=O)n2)ccn1 [Compound 18]	–
219	highest inhibitory activity against PLK1	NC(=O)c1nn(-c2ccnc(Nc3ccccc3)c2)cc1OCc1ccc(CO)cc1Cl [Compound 15, 4-((2-chloro-4-(hydroxymethyl)benzyl)oxy)-1-(2-(phenylamino)pyridin-4-yl)-1H-pyrazole-3-carboxamide]	superior effect of inhibiting PLK1 selectively as compared to other protein kinases
